According to PubChem BioAssay AID1996:
Values after ≈ are worked out from the molar mass of the structure shown.

Conditions: buffer; pH 7.4; 200.0 µM
For `c1ccc(CN2CCN(c3cnc4ccccc4n3)CC2)cc1`, the solubility kinetic was 37.7 µg/mL (≈ 124 µM).
Work on `CCCCNC(=S)N1CCn2cccc2C1c1ccc(F)cc1` (centres undefined) yielded a solubility kinetic of 10.3 µg/mL (≈ 31.1 µM).
With `CCOC(=O)c1ccc(NC(=O)NCCc2cnc[nH]2)cc1` the solubility kinetic was > 45.3 µg/mL.
Compound `Cn1c(=NC(=O)C(C)(C)C)sc2cccc(F)c21` has a solubility kinetic of 1 µg/mL (≈ 3.75 µM).
In the case of `Cc1cc(Br)ccc1OCC(=O)NC1CCCC1`, the solubility kinetic is reported as 31.4 µg/mL (≈ 101 µM).
Work on `CN(C)C(=O)C1CC(=O)OC12CCCCC2` (centres undefined) yielded a solubility kinetic of 28.2 µg/mL (≈ 125 µM).
For `Cc1cc(C(=O)NC(C)C2CCCO2)no1` (centres undefined), the solubility kinetic was > 33.6 µg/mL.
With `Cc1ccc(OCCNC(=O)c2ccc(C)cc2)cc1` the solubility kinetic was 3.8 µg/mL (≈ 14.1 µM).
For `Oc1ccccc1-c1nc2ccccc2nc1-c1ccccc1`, the solubility kinetic was 25.1 µg/mL (≈ 84.1 µM).
With `COc1ccc(C(=O)N2CCN(c3ccc(C(C)=O)cc3)CC2)cc1S(=O)(=O)N1CCCC1` the solubility kinetic was > 70.7 µg/mL.
Compound `CC(C)N(Cc1ccccc1)C(=O)CN1c2cccc3cccc(c23)S1(=O)=O` has a solubility kinetic of 11 µg/mL (≈ 27.9 µM).
With `FC(F)(F)c1nc(=S)c2ccccc2[nH]1` the solubility kinetic was 34.5 µg/mL (≈ 150 µM).
In the case of `O=C(Nc1ccccc1O)c1ccc2c(c1)C(=O)N(c1ccccc1)C2=O`, the solubility kinetic is reported as < 0.4 µg/mL.
Compound `CC1CN(C(=S)Nc2cccc(Cl)c2Cl)CC(C)O1` (centres undefined) has a solubility kinetic of 18.9 µg/mL (≈ 59.2 µM).
Compound `CCOC(=O)c1sc(NC(=O)C2CC(=O)N(c3ccc(OCC)cc3)C2)nc1C` (centres undefined) has a solubility kinetic of 9.9 µg/mL (≈ 23.7 µM).
`COc1ccc(NS(=O)(=O)c2cccc(C(=O)OCC(=O)NC3CC3)c2)cc1` gave a solubility kinetic of 11.6 µg/mL (≈ 28.7 µM).
With `Cc1ccc(C(=O)COC(=O)c2cc(=O)[nH]c3ccccc23)cc1` the solubility kinetic was 1.1 µg/mL (≈ 3.42 µM).
In the case of `COc1cc(NC(=O)CCc2c(C)noc2C)c(Cl)cc1C(=O)O`, the solubility kinetic is reported as > 52.9 µg/mL.
With `O=C(Nc1ccccc1)Nc1nc(-c2ccccc2)cs1` the solubility kinetic was < 0.2 µg/mL.
For `CCOC(=O)c1c(NC(=O)CNC2CCCCC2)sc(C)c1C`, the solubility kinetic was < 0.4 µg/mL.
`CCOC(=O)CCSc1cc(C)c2ccccc2n1` showed a solubility kinetic of 4.3 µg/mL (≈ 15.6 µM).
In the case of `CC1Cc2ccccc2N1S(=O)(=O)c1cnc(Cl)c(Br)c1` (centres undefined), the solubility kinetic is reported as < 0.4 µg/mL.
In the case of `O=C(COc1ccccc1[N+](=O)[O-])NCCC1=CCCCC1`, the solubility kinetic is reported as 31.8 µg/mL (≈ 104 µM).
For `S=C(NCc1ccccc1)N1CCn2cccc2C1c1ccncc1` (centres undefined), the solubility kinetic was 45.2 µg/mL (≈ 130 µM).
For `O=C(COC(=O)c1ccc(Br)o1)Nc1ccc(F)cc1[N+](=O)[O-]`, the solubility kinetic was 8.2 µg/mL (≈ 21.2 µM).
With `Cc1ccc(NC(=O)C2C3CCCCC32)cc1[N+](=O)[O-]` (centres undefined) the solubility kinetic was 0.5 µg/mL (≈ 1.82 µM).
Work on `Cc1ccc(CNC(=O)C(CC(C)C)OC(=O)c2ccco2)cc1` (centres undefined) yielded a solubility kinetic of 11.2 µg/mL (≈ 34 µM).
With `Cc1ccc2cccc(OCc3cccc([N+](=O)[O-])c3)c2n1` the solubility kinetic was 23.6 µg/mL (≈ 80.2 µM).
In the case of `FC(F)(F)c1cccc(NC(=S)N2CCCC2)c1`, the solubility kinetic is reported as > 41.1 µg/mL.
In the case of `CC(C)CCNC(=O)C1c2ccccc2Oc2ccccc21`, the solubility kinetic is reported as < 0.6 µg/mL.
With `O=S(=O)(NC(=S)c1ccccc1)c1ccc(Cl)cc1` the solubility kinetic was > 46.8 µg/mL.
In the case of `O=C(COC(=O)c1ccccc1F)NC1CCCC1`, the solubility kinetic is reported as > 39.8 µg/mL.
In the case of `CCOc1ccccc1/C=C(\C#N)C1=CCCC1`, the solubility kinetic is reported as > 35.9 µg/mL.
Work on `CCN1CCN(C(=S)NC(CC(=O)c2ccccc2)c2ccccc2)CC1` (centres undefined) yielded a solubility kinetic of 49.8 µg/mL (≈ 131 µM).
With `COCCN1Cc2cc(=O)n3c([nH]c4ccccc43)c2C1=N` the solubility kinetic was 5.1 µg/mL (≈ 17.2 µM).
In the case of `Cc1ccnc(NC(=O)CNC(=O)c2ccccc2Br)c1`, the solubility kinetic is reported as 48.5 µg/mL (≈ 139 µM).
For `CN(CCC#N)C(=O)COC(=O)c1ccc2c(c1)C(=O)N(C1CCCCC1)C2=O`, the solubility kinetic was 16.1 µg/mL (≈ 40.5 µM).
In the case of `CCOc1ccc(N2CC(C(=O)Nc3ccc4c(c3)OCCO4)CC2=O)cc1` (centres undefined), the solubility kinetic is reported as > 57.4 µg/mL.
With `c1ccc(N2CCOCCOCCOCCOCCOCC2)cc1` the solubility kinetic was > 50.9 µg/mL.
In the case of `O=C(COC(=O)C1CC(=O)N(Cc2ccccc2)C1)Nc1cccc([N+](=O)[O-])c1` (centres undefined), the solubility kinetic is reported as > 59.6 µg/mL.
In the case of `CC1=C(C(=O)OC(C)C)C(c2ccc3c(c2)OCO3)NC(=O)N1` (centres undefined), the solubility kinetic is reported as 47.3 µg/mL (≈ 149 µM).
For `Br.Nc1ncc([N+](=O)[O-])cc1Br`, the solubility kinetic was > 44.8 µg/mL.
For `CCOC(=O)c1c(C)oc2c1c(C=NC1CCS(=O)(=O)C1)c(O)c1ccccc12` (centres undefined), the solubility kinetic was < 0.9 µg/mL.
Compound `COC(=O)c1cc(S(=O)(=O)NC2CCCCC2)cn1C` has a solubility kinetic of 42 µg/mL (≈ 140 µM).
`CCc1sc(C(=O)Nc2cccnc2)cc1Br` showed a solubility kinetic of 3.9 µg/mL (≈ 12.5 µM).
`Cc1ccc(C(=O)NCCNC(=O)c2ccco2)cc1C` gave a solubility kinetic of 38.8 µg/mL (≈ 136 µM).
`Br.CCSC(=Nc1ccccc1)N1CCOCC1` gave a solubility kinetic of 43.9 µg/mL.
In the case of `COc1ccc(N2CCCC2)c(NC(=O)COc2ccccc2)c1`, the solubility kinetic is reported as 3.8 µg/mL (≈ 11.6 µM).
`COc1cccc(NC(=O)C2CCCO2)c1` (centres undefined) showed a solubility kinetic of 30.5 µg/mL (≈ 138 µM).
In the case of `COc1ccc(NC(=S)NCc2ccc(F)cc2)cc1`, the solubility kinetic is reported as > 43.6 µg/mL.
`Clc1ccc(CN2CCN(c3ncccn3)CC2)cc1Cl` showed a solubility kinetic of 13 µg/mL (≈ 40.2 µM).
`N#C/C(=C\c1ccccc1O)C(=O)Nc1ccccn1` gave a solubility kinetic of 32.9 µg/mL (≈ 124 µM).
In the case of `CSCCC(=O)N1CCN(CC(=O)N2CCCC2)CC1`, the solubility kinetic is reported as > 44.9 µg/mL.
With `CC1(C)CC(=O)C2=C(C1)NC(=S)C(C#N)C21CCCCC1` (centres undefined) the solubility kinetic was > 45.4 µg/mL.
`COc1ccc(OC)c(COC(=O)c2cccc(S(=O)(=O)N3CCCCC3)c2)c1` gave a solubility kinetic of 10.1 µg/mL (≈ 24.1 µM).
In the case of `CCOC(=O)CCCNC(=O)CCNC(=O)c1ccc(OCCC(C)C)cc1`, the solubility kinetic is reported as > 58.9 µg/mL.
With `O=C(O)CNS(=O)(=O)c1c(Cl)cccc1Cl` the solubility kinetic was > 42.6 µg/mL.
For `CC1=C(c2ccccc2)C(=S)NC(C)(C)C1`, the solubility kinetic was 2.5 µg/mL (≈ 10.8 µM).
In the case of `Cc1ccc(S(=O)(=O)NCc2ccccn2)c(C)c1`, the solubility kinetic is reported as > 41.5 µg/mL.
